Here are results for twelve compounds from publication PMC6592549, “Ligand-guided homology modeling drives identification of novel histamine H3 receptor ligands” (PLoS ONE, 2019).

Where two headings read alike, the source gives them in different places.

The target in assay [1] is Histamine H3 receptor (H3R). The settings on record: Table A in S1 File, cited from earlier work.
Assay [2] has as its target Histamine H3 receptor (H3R). The conditions noted are these: Table A in S1 File, cited from earlier work. This is another data set of the same source.
The next assay addresses T1, hH3R (Homo sapiens, UniProt Q9Y5N1).
T1 construct: expressed in transfected cells; host or cells: HEK-293 cells stably expressing hH3R
As to the kind of experiment: Radioligand depletion assay with [3H]-N-alpha-methylhistamine on crude hH3R membrane extracts. The conditions noted are these: for Ki: mean of at least three independent experiments, each in triplicates, Cheng-Prusoff; for H3R binding, result in words: radioligand depletion assay against H3R. Format: binding. The protocol: Radioligand depletion assays were performed as described previously using crude hH3R membrane extracts obtained from HEK-293 cells stably expressing the hH3R [15, 57]. Briefly, crude membrane extracts were incubated with various concentrations of test ligands (between 0.01 nM and 100 μM) and [3H]-N-alpha-methylhistamine. Bound radioligand were harvested through GF/B filters and measured using liquid scintillation counting. Data analysis were performed with GraphPad Prism 6 using non-linear regression. The Ki values for each experiment were obtained according to Cheng-Prusoff and converted to pKi values to allow statistical analysis. Mean values were calculated from at least three independent experiments, each performed in triplicates (Table E in S1 File).

T1 sequence (Q9Y5N1 whole entry): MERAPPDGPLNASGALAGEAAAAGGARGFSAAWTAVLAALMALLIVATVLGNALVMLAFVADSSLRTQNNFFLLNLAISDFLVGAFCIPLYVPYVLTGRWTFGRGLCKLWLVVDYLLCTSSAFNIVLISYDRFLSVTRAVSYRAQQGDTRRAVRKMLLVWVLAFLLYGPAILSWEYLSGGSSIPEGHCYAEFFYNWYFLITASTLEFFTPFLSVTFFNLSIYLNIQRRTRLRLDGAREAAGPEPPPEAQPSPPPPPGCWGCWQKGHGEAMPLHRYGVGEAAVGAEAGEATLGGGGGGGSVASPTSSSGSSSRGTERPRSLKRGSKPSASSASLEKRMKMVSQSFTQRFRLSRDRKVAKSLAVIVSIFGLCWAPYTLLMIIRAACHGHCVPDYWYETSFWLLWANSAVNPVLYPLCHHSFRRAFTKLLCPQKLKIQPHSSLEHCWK

For orientation: Ki means the dissociation constant of the complex between target and ligand, obtained from inhibition or displacement. For `c1nc([C@H]2C[C@@H]2CCNCC2CCCCC2)c[nH]1` [CHEMBL214312], the inhibition constant Ki in assay [1] (ref 7 (S1 File)) was 5.3 nM.
Regarding `N#CC(C#N)=C1N(CCCN2CCCCC2)CCN1CCCN1CCCCC1` [CHEMBL257391], in assay [1] (ref 6 (S1 File)), the Ki was 2.4 nM.
Turning to `C[C@@H]1CCCN1CCc1cc2cc(CNc3ccc(Cl)nn3)ccc2o1` [CHEMBL362952], in assay [1] (ref 10 (S1 File)), the Ki is 0.3 nM.
For orientation: IC50 means the concentration at which inhibition is half-maximal. As for `C[C@@H]1C[C@@](O)(C#Cc2cccc3ccccc23)[C@@H](C)CN1C` [CHEMBL1269844], the IC50 in assay [2] (ref 3 (S1 File)) is 9 nM.
Turning to `C[C@@H]1CCCN1CCCOc1ccc(-c2cc(-c3ccccc3)c(=O)n(C)c2)cc1` [CHEMBL1923737], the Ki in assay [1] (ref 5 (S1 File)) is 3.5 nM.
With `CCNC(=O)C1CC(F)(c2ccc(CN3CCCC3)c(F)c2)C1` (centres unmarked) [CHEMBL2151197], the Ki in assay [1] (ref 9 (S1 File)) was 2.3 nM.
Consider `CN(C)CCc1ccc(NC(=O)Nc2ccc(CCN(C)C)cc2)cc1` [CHEMBL2387294], for which the 50% inhibitory concentration (IC50) in assay [2] (ref 2 (S1 File)) was 6.5 nM.
Regarding `c1ccc2c(CCNc3ccc(CN4CCOCC4)cc3)c[nH]c2c1` [CHEMBL2419581], in assay [1] (ref 4 (S1 File)), the inhibition constant Ki was 4.3 nM.
Consider `CC(C)N1CCN(C(=O)[C@H]2CC23CCN(C2CCOCC2)CC3)CC1` [CHEMBL3124968], for which the IC50 in assay [2] (ref 8 (S1 File)) was 8.3 nM.
Consider `O=C(c1csc(-c2ccccc2)n1)N1CCCN(C2CC2)CC1` [compound 5], for which, on hH3R, the Ki came out at 148 nM and the “H3R binding, result in words” value was “nanomolar concentration ranges”.
Consider `CCN1CCN(C(=O)c2ccc(-c3nc4ccccc4s3)s2)CC1` [compound 6], for which, at hH3R, the affinity, expressed as Ki, was 38.2 nM and the “H3R binding, result in words” value was “nanomolar concentration ranges”.
On to `Cc1csc(-c2ccc(C(=O)N3CCN(C)CC3)cc2)n1` [compound 8], for which the “H3R binding, result in words” value on hH3R was “inactive”.
